Patent US11767332B2, “Glucose-sensitive albumin-binding derivatives” (Novo Nordisk A/S, priority 2017, dated 2023)

Tests used:
[1] = Alizarin red (ARS) assay, glucose binding affinity; conditions: 20 mM phosphate buffer pH 7.4, room temperature
Protocol: (§1) The alizarin-red binding assay is a colorimetric assay used to determine the inhibition affinity of boronate compounds to glucose. The assay is based on a colour shift of alizarin-red upon binding to boronate, which shift can be followed by change in absorbance in the 330-340 nm region.
(§2) After 5 minutes of centrifugation at 4000 rpm, the plate is placed in a multi-well spectrometer (SpectraMax, Molecular Devices) for absorption detection.
(§3) The analysis is carried out at room temperature with absorption readings at 330, 340 and 520 nm, respectively. Data obtained for absorption versus concentration of boronate is then fitted (Prism 7, GraphPad) with a sigmoidal function to obtain the Kd value of boronate and ARS.
(§4) Upon complete dissolution of the compound, 200 μM of Alizarin red (ARS) is added to the solution. The ARS-boronate solution is then aliquoted into a 96 multiwell plate (black, flat and clear bottom) 1:1 with appropriate carbohydrate. In particular, D-glucose and L-lactate solutions are prepared in a 20 mM phosphate buffer pH 7.4 at these concentrations respectively: 1000, 500, 250, 100, 50, 25, 10, 5, 2.5, 1, 0.25, 0.1 mM and 2500, 1000, 500, 100, 50, 10, 5, 1, 0.5, 0.1, 0.05, 0.01 mM. The plate with ARS-boronate mixed with carbohydrate is incubated 20 minutes at room temperature. After 5 minutes of centrifugation at 4000 rpm the plate is placed in a multiwell spectrometer (Spectra Max, Molecular Devices) for absorption detection.
(§5) The analysis is carried out at room temperature with absorption readings at 330, 340 and 520 nm, respectively.

[2] = Alizarin red (ARS) assay, lactate binding affinity; conditions: 20 mM phosphate buffer pH 7.4, room temperature, N.D. = not detectable
Protocol: as §1, §2, §3, §4, §5

O=C(O)c1cc(CNC(=O)c2ccc(B(O)O)cc2F)cc(CNC(=O)c2ccc(B(O)O)cc2F)c1 [Example 1, 3,5-Bis((4-borono-2-fluorobenzamido)methyl)benzoic acid]
Kd [1]: 3.1 mM | Kd [2]: 8.6 mM

O=C(O)c1cc(CNC(=O)c2ccc(B(O)O)c(F)c2)cc(CNC(=O)c2ccc(B(O)O)c(F)c2)c1 [Example 2, 3,5-Bis((4-borono-3-fluorobenzamido)methyl)benzoic acid]
Kd [1]: 3.4 mM | Kd [2]: 5.4 mM

O=C(NCC[C@H](NC(=O)c1ccc(B(O)O)c(F)c1)C(=O)O)c1ccc(B(O)O)c(F)c1 [Example 4, (S)-2,4-bis(4-borono-3-fluorobenzamido)butanoic acid]
Kd [1]: 2.6 mM | Kd [2]: 6.5 mM

O=C(O)CN(CCNC(=O)c1ccc2c(c1F)B(O)OC2)C(=O)c1ccc2c(c1F)B(O)OC2 [Example 5, N-(7-Fluoro-1-hydroxy-1,3-dihydrobenzo[c][1,2]oxaborole-6-carbonyl)-N-(2-(7-fluoro-1-hydroxy-1,3-dihydrobenzo[c][1,2]oxaborole-6-carboxamido)ethyl)glycine]
Kd [1]: 0.8 mM | Kd [2]: 40 mM

O=C(O)c1cc(CNC(=O)c2ccc3c(c2F)B(O)OC3)cc(CNC(=O)c2ccc3c(c2F)B(O)OC3)c1 [Example 6, 3,5-Bis((7-fluoro-1-hydroxy-1,3-dihydrobenzo[c][1,2]oxaborole-6-carboxamido)methyl) benzoic acid]
Kd [1]: 1.1 mM

O=C(O)CN(CCNC(=O)c1cc2c(cc1F)COB2O)C(=O)c1cc2c(cc1F)COB2O [Example 7, N-(5-Fluoro-1-hydroxy-1,3-dihydrobenzo[c][1,2]oxaborole-6-carbonyl)-N-(2-(5-fluoro-1-hydroxy-1,3-dihydrobenzo[c][1,2]oxaborole-6-carboxamido)ethyl)glycine]
Kd [1]: 1.5 mM | Kd [2]: 24.1 mM

O=C(O)CN(CCNC(=O)c1cc(F)c2c(c1)B(O)OC2)C(=O)c1cc(F)c2c(c1)B(O)OC2 [Example 8, N-(4-Fluoro-1-hydroxy-1,3-dihydrobenzo[c][1,2]oxaborole-6-carbonyl)-N-(2-(4-fluoro-1-hydroxy-1,3-dihydrobenzo[c][1,2]oxaborole-6-carboxamido)ethyl)glycine]
Kd [1]: 2.7 mM | Kd [2]: 34 mM

O=C(O)CN(CCNC(=O)c1cc2c(cc1F)B(O)OC2)C(=O)c1cc2c(cc1F)B(O)OC2 [Example 9, N-(6-Fluoro-1-hydroxy-1,3-dihydrobenzo[c][1,2]oxaborole-5-carbonyl)-N-(2-(6-fluoro-1-hydroxy-1,3-dihydrobenzo[c][1,2]oxaborole-5-carboxamido)ethyl)glycine]
Kd [1]: 2.6 mM | Kd [2]: 67.9 mM

O=C(NCCCC[C@H](NC(=O)c1cc2c(cc1F)B(O)OC2)C(=O)O)c1cc2c(cc1F)B(O)OC2 [Example 10, N^2,N^6-Bis(6-fluoro-1-hydroxy-1,3-dihydrobenzo[c][1,2]oxaborole-5-carbonyl)-L-lysine]
Kd [1]: 3.2 mM

O=C(O)c1cc(B(O)O)c(F)c(S(=O)(=O)c2ccc(F)c(B(O)O)c2)c1 [Example 11, 3-Borono-5-((3-borono-4-fluorophenyl)sulfonyl)-4-fluorobenzoic acid]
Kd [1]: 1.8 mM | Kd [2]: 17 mM

O=C(O)c1cc(B(O)O)cc(C(=O)c2cc(F)cc(B(O)O)c2)c1 [Example 12, 3-Borono-5-(3-borono-5-fluorobenzoyl)benzoic acid]
Kd [1]: 1.1 mM | Kd [2]: 18 mM

O=C(O)c1cc(B(O)O)cc(C(=O)c2cc(B(O)O)c(F)cc2F)c1 [Example 13, 3-Borono-5-(5-borono-2,4-difluorobenzoyl)benzoic acid]
Kd [1]: 0.3 mM | Kd [2]: 4 mM

O=C(NCCCC[C@H](NC(=O)c1cc2c(cc1F)B(O)OC2)C(=O)O)c1ccc(B(O)O)cc1F [Example 14, N^6-(4-Borono-2-fluorobenzoyl)-N^2-(6-fluoro-1-hydroxy-1,3-dihydrobenzo[c][1,2]oxaborole-5-carbonyl)-L-lysine]
Kd [1]: 3.2 mM | Kd [2]: 16 mM

O=C(NC[C@H](NC(=O)c1ccc2c(c1F)B(O)OC2)C(=O)O)c1ccc2c(c1F)B(O)OC2 [Example 15, (S)-2,3-Bis(7-fluoro-1-hydroxy-1,3-dihydrobenzo[c][1,2]oxaborole-6-carboxamido)propanoic acid]
Kd [1]: 0.5 mM | Kd [2]: 10 mM

O=C(NC[C@H](NC(=O)c1cc2c(cc1F)COB2O)C(=O)O)c1cc2c(cc1F)COB2O [Example 16, (S)-2,3-Bis(5-fluoro-1-hydroxy-1,3-dihydrobenzo[c][1,2]oxaborole-6-carboxamido)propanoic acid]
Kd [1]: 4.2 mM | Kd [2]: 37 mM

O=C(NC[C@H](NC(=O)c1cc(F)c2c(c1)B(O)OC2)C(=O)O)c1cc(F)c2c(c1)B(O)OC2 [Example 17, (S)-2,3-Bis(4-fluoro-1-hydroxy-1,3-dihydrobenzo[c][1,2]oxaborole-6-carboxamido) propanoic acid]
Kd [1]: 1.6 mM

O=C(O)CNC(=O)c1cc(B(O)O)cc(C(F)(F)c2cc(B(O)O)cc(C(F)(F)F)c2)c1 [Example 18, (3-Borono-5-((3-borono-5-(trifluoromethyl)phenyl)difluoromethyl)benzoyl)glycine]
Kd [1]: 0.4 mM | Kd [2]: 13 mM

O=C(O)CNC(=O)c1cc(B(O)O)cc(C(=O)c2cc(B(O)O)cc(C(F)(F)F)c2)c1 [Example 19, (3-Borono-5-(3-borono-5-(trifluoromethyl)benzoyl)benzoyl)glycine]
Kd [1]: 1.5 mM | Kd [2]: 17 mM

O=C(O)CNC(=O)c1cc(B(O)O)cc(S(=O)(=O)c2cc(B(O)O)cc(C(F)(F)F)c2)c1 [Example 20]
Kd [1]: 1.7 mM | Kd [2]: 31 mM

O=C(O)CCC(=O)N1C[C@H](NC(=O)c2ccc3c(c2F)B(O)OC3)[C@@H](NC(=O)c2ccc3c(c2F)B(O)OC3)C1 [Example 21, 4-((3S,4S)-3,4-Bis(7-fluoro-1-hydroxy-1,3-dihydrobenzo[c][1,2]oxaborole-6-carboxamido)pyrrolidin-1-yl)-4-oxobutanoic acid]
Kd [1]: 2.6 mM

O=C(O)CNC(=O)c1cc(B(O)O)cc(S(=O)(=O)c2cc(F)cc(B(O)O)c2)c1 [Example 24, (3-Borono-5-((3-borono-5-fluorophenyl)sulfonyl)benzoyl)glycine]
Kd [1]: 1.2 mM | Kd [2]: 34 mM

O=C(O)CCC(=O)N1C[C@H](NC(=O)c2cc3c(c(C(F)(F)F)c2)COB3O)[C@@H](NC(=O)c2cc3c(c(C(F)(F)F)c2)COB3O)C1 [Example 27, 4-((3S,4S)-3,4-Bis(1-hydroxy-4-(trifluoromethyl)-1,3-dihydrobenzo[c][1,2]oxaborole-6-carboxamido)pyrrolidin-1-yl)-4-oxobutanoic acid]
Kd [1]: 1.1 mM | Kd [2]: 41 mM

O=C(O)CNC(=O)c1cc(B(O)O)cc(S(=O)(=O)c2cc(B(O)O)cc(S(F)(F)(F)(F)F)c2)c1 [Example 28, (3-Borono-5-((3-borono-5-(pentafluoro-λ^6-sulfanyl)phenyl)sulfonyl)benzoyl)glycine]
Kd [1]: 0.3 mM

O=C(O)CCC(=O)N1C[C@@H](NC(=O)c2cc3c(c(C(F)(F)F)c2)COB3O)[C@H](NC(=O)c2cc3c(c(C(F)(F)F)c2)COB3O)C1 [Example 29, 4-[(3R,4R)-3,4-bis[[1-hydroxy-4-(trifluoromethyl)-3H-2,1-benzoxaborole-6-carbonyl]amino]pyrrolidin-1-yl]-4-oxobutanoic acid]
Kd [1]: 2.3 mM

O=C(O)CN(CCNC(=O)c1cc2c(c(C(F)F)c1)COB2O)C(=O)c1cc2c(c(C(F)F)c1)COB2O [Example 31, N-(4-(Difluoromethyl)-1-hydroxy-1,3-dihydrobenzo[c][1,2]oxaborole-6-carbonyl)-N-(2-(4-(difluoromethyl)-1-hydroxy-1,3-dihydrobenzo[c][1,2]oxaborole-6-carboxamido)ethyl)glycine]
Kd [1]: 0.8 mM | Kd [2]: 100 mM

O=C(O)CN(CCNC(=O)c1cc(Cl)c2c(c1)B(O)OC2)C(=O)c1cc(Cl)c2c(c1)B(O)OC2 [Example 32, N-(4-Chloro-1-hydroxy-1,3-dihydrobenzo[c][1,2]oxaborole-6-carbonyl)-N-(2-(4-chloro-1-hydroxy-1,3-dihydrobenzo[c][1,2]oxaborole-6-carboxamido)ethyl)glycine]
Kd [1]: 3.2 mM | Kd [2]: 60.6 mM

O=C(O)CN=S(=O)(c1cc2c(c(C(F)(F)F)c1)COB2O)c1cc2c(c(C(F)(F)F)c1)COB2O [Example 38, 2-((Bis(1-hydroxy-4-(trifluoromethyl)-1,3-dihydrobenzo[c][1,2]oxaborol-6-yl)(oxo)-λ6-sulfanylidene)amino)acetic acid]
Kd [1]: 3.7 mM

O=C(NC[C@H](NC(=O)c1ccc2c(c1)B(O)OC2)C(=O)O)c1ccc2c(c1)B(O)OC2 [Example 40, (S)-2,3-Bis(1-hydroxy-1,3-dihydrobenzo[c][1,2]oxaborole-6-carboxamido)propanoic acid]
Kd [1]: 2 mM

O=C(O)CN(CCNC(=O)c1cc2c(c(S(=O)(=O)C(F)(F)F)c1)COB2O)C(=O)c1cc2c(c(S(=O)(=O)C(F)(F)F)c1)COB2O [Example 42, N-(1-Hydroxy-4-((trifluoromethyl)sulfonyl)-1,3-dihydrobenzo[c][1,2]oxaborole-6-carbonyl)-N-(2-(1-hydroxy-4-((trifluoromethyl)sulfonyl)-1,3-dihydrobenzo-[c][1,2]oxaborole-6-carboxamido)ethyl)glycine]
Kd [1]: 1.1 mM
